Test results: patent publication US20050009924A1 (priority 2003, published 2005)
Where two headings read alike, the source gives them in different places.

Columns and labels:
[1] = system: human hepatoma G2 cells; assay: Cytotoxicity assay (XTT colorimetric), Hep G2; type: cell-based
[2] = system: rat glioma C6 cells; assay: Cytotoxicity assay (XTT colorimetric), C6 cells; type: cell-based
[3] = system: hepatitis B virus transfected hepatoma cell lines, HepG 2.2.15 cells; assay: Cytotoxicity assay, 2.2.15 cells; type: cell-based, human

Structure (SMILES)	IC50 ([1]; 48 h of drug exposure)	IC50 ([2]; 48 h of drug exposure)	IC50 ([3]; 48 h of drug exposure)	IC50 [1]	IC50 [2]	IC50 [3]
CC(C)CNc1cccc2c1C(=O)c1c(NCC(C)C)cccc1C2=O [Vd]	> 20 µM	1.32 ± 0.01 µM	> 20 µM			
CCCCCCNc1cccc2c1C(=O)c1c(NCCCCCC)cccc1C2=O [Ve]				> 20 µM	> 20 µM	> 20 µM
CC(C)Nc1cccc2c1C(=O)c1c(NC(C)C)cccc1C2=O [Vf, 1,8-Bis(isopropylamine)-anthraquinone]	> 20 µM	1.24 ± 0.01 µM	> 20 µM			
O=C1c2cccc(NCCO)c2C(=O)c2c(NCCO)cccc21 [Vg]				> 20 µM	0.02 ± 0.01 µM	> 20 µM
O=C1c2cccc(NCCCO)c2C(=O)c2c(NCCCO)cccc21 [Vh]	> 20 µM	1 ± 0.01 µM	> 20 µM			
O=C1c2cccc(NCCCCO)c2C(=O)c2c(NCCCCO)cccc21 [Vi]	1.65 µM	0.41 ± 0.02 µM	> 20 µM			
CN(C)CCNc1cccc2c1C(=O)c1c(NCCN(C)C)cccc1C2=O [Vj]	0.16 µM	0.15 ± 0.04 µM	8.55 µM			
NCCCNc1cccc2c1C(=O)c1c(NCCCN)cccc1C2=O [Vk]	11.4 ± 0.17 µM	> 20 µM	> 20 µM			
NCCCCNc1cccc2c1C(=O)c1c(NCCCCN)cccc1C2=O [Vl]	11.5 ± 0.34 µM	> 20 µM	> 20 µM			
O=C1c2cccc(NC3CCCC3)c2C(=O)c2c(NC3CCCC3)cccc21 [Vn]	> 20 µM	> 20 µM	> 20 µM			
O=C1c2cccc(NCc3ccccc3)c2C(=O)c2c(NCc3ccccc3)cccc21 [Vo]	> 20 µM	1.66 ± 0.09 µM	> 20 µM			
O=C1c2cccc(NCCc3ccccc3)c2C(=O)c2c(NCCc3ccccc3)cccc21 [Vp]	> 20 µM	> 20 µM	> 20 µM			
